In ChEMBL document CHEMBL4017531, “Design and Structure-Guided Development of Novel Inhibitors of the Xeroderma Pigmentosum Group A (XPA) Protein-DNA Interaction” (J Med Chem, 2017):
pIC50: −log10 of the molar value. The source made the active and inactive calls. The calls are words filed in the database; no cut-off is given here.

Legend:
Salmonidae = assay: Binding affinity to salmon sperm DNA assessed as DNA intercalation by SYBR-green dye based fluorescence assay
Homo sapiens = species: Homo sapiens; conditions: 10 uM
Description: Inhibition of RPA (unknown origin) at 10 uM by EMSA assay

[1] = biological target: DNA repair protein complementing XP-A cells (Homo sapiens, UniProt P23025); assay: Inhibition of full length human XPA expressed in Sf9 cells assessed as reduction in interaction of XPA with 32P-labeled cisplatin-modified dsDNA by EMSA
Chain of DNA repair protein complementing XP-A cells (P23025 whole entry): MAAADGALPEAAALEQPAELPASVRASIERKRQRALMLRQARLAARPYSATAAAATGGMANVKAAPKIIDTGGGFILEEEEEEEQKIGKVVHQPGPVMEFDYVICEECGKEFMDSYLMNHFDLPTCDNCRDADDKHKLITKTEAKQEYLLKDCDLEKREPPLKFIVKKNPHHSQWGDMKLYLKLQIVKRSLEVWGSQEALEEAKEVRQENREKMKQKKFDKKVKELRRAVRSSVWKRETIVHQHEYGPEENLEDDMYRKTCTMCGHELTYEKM

SMILES	Activity (Salmonidae)	inhibition (Homo sapiens)	pIC50 [1]
CC1=NN(c2ccc(C(=O)O)cc2)C(=O)/C1=C\c1ccc(-c2ccc(C(=O)NCc3ccc(F)cc3)cc2)o1	inactive		
CC1=NN(c2ccc(Cl)c(C(=O)O)c2)C(=O)/C1=C\c1ccc(-c2ccc(Cl)c(C(=O)OCc3ccccc3Cl)c2)o1	Active	inactive	
CC1=NN(c2cccc(C(=O)O)c2)C(=O)/C1=C\c1ccc(-c2ccc(C(=O)NCc3ccc(F)cc3)cc2)o1			< 4.30
CC1=NN(c2ccc(C(=O)O)cc2)C(=O)/C1=C\c1ccc(-c2ccc(Cl)c(C(=O)NCc3ccc(F)cc3)c2)o1	inactive	inactive	
CC1=NN(c2ccc(Cl)c(C(=O)O)c2)C(=O)/C1=C\c1ccc(-c2ccc(Cl)c(C(=O)OCc3ccccc3)c2)o1	Active	inactive	

Further lines, results first:

Activity (Salmonidae)	inhibition (Homo sapiens)	pIC50 [1]	SMILES
inactive	inactive		CC1=NN(c2ccc(C(=O)O)cc2)C(=O)/C1=C\c1ccc(-c2ccc(Cl)c(C(=O)NCC3CC3)c2)o1
inactive			CC1=NN(c2cccc(C(=O)O)c2)C(=O)/C1=C\c1ccc(-c2ccc(Cl)c(C(=O)NCc3ccc(F)cc3)c2)o1
		< 4.30	CC1=NN(c2cccc(C(=O)NCC3CC3)c2)C(=O)/C1=C\c1ccc(-c2ccc(Cl)c(C(=O)NCC3CC3)c2)o1
inactive			CC1=NN(c2cccc(C(=O)O)c2)C(=O)/C1=C\c1ccc(-c2ccc(Cl)c(C(=O)NCC3CC3)c2)o1
		< 4.30	CC1=NN(c2cccc(C(=O)O)c2)C(=O)/C1=C\c1ccc(-c2ccc(C(=O)NCC3CC3)cc2)o1
		< 4.60	CCOC(=O)c1cccc(N2N=C(C)/C(=C/c3ccc(-c4ccc(Cl)c(C(=O)NCc5ccc(F)cc5)c4)o3)C2=O)c1
